Converted amounts (≈) assume the structure as drawn. Bridge positions count the residues as written; N and C are the ends. Square brackets hold non-standard residues; d marks the D form. Peptide text beside a SMILES is read from it. * marks the point of attachment. Dab(CH2SO3H) = N[C@@H](CCNCS(=O)(=O)O)C(=O)O; Heptanoyl(6-Me) = CC(C)CCCCC(=O)*; Sulfomethyl = O=S(=O)(O)C*; Nonanoyl = CCCCCCCCC(=O)*; X1 = CC[C@H](C)CCCCC(=O)*; dDab = NCC[C@@H](N)C(=O)O; Heptanoyl = CCCCCCC(=O)*; Octanoyl = CCCCCCCC(=O)*; Orn = NCCC[C@H](N)C(=O)O; Dab = NCC[C@H](N)C(=O)O; Dap = NC[C@H](N)C(=O)O
Legend:
Assay type in all cases: cell-based
[1] = system: Acinetobacter baumannii ABA19-1; settings: ABA19-1
Summary of the method: (§1)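 Colonies from 18-24 h plates were suspended to 0.5 McFarland and diluted in MH broth. Two-fold compound dilutions were then mixed 1:1 with inoculum to reach 64 to 0.03 mg/L and (2-4) × 10^5 CFU/mL. Plates were sealed and incubated at 35-37°C for 16-20 h, after which the MIC was read.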

[2] = system: Acinetobacter baumannii NCTC 13304 (OXA-27); settings: NCTC 13304
Summary of the method: as §1

[3] = system: Escherichia coli ATCC BAA-2340 (KPC); settings: ATCC BAA-2340
Summary of the method: as §1

[4] = system: Escherichia coli ATCC BAA-2523; settings: ATCC BAA-2523
Summary of the method: as §1

[5] = system: Klebsiella pneumoniae ATCC BAA-1705 (KPC); settings: ATCC BAA-1705
Summary of the method: as §1

[6] = system: Klebsiella pneumoniae KPN+19-15; settings: KPN+19-15
Summary of the method: as §1

[7] = system: Pseudomonas aeruginosa ATCC 27853; settings: ATCC 27853
Summary of the method: as §1

[8] = system: Pseudomonas aeruginosa PAE19-3; settings: PAE19-3
Summary of the method: as §1

[9] = Nephrotoxicity assay: in vitro cytotoxicity of HK-2 cells by CCK-8 assay; settings: human, HK-2 cells (human renal), 72 h incubation with drug-containing medium
Summary of the method: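 HK-2 human renal cells in RPMI-1640 with 10% FBS were exposed to compounds at final 12.5–500 µg/mL for 72 h, then CCK-8 for 3 h and OD450 read. Viability was normalised to drug-free wells; IC50 came from logarithmic regression over three repeats, with polymyxin B as positive drug.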

| SMILES | MIC [1] [µg/mL] | MIC [2] [µg/mL] | MIC [3] [µg/mL] | MIC [4] [µg/mL] | MIC [5] [µg/mL] | MIC [6] [µg/mL] | MIC [7] [µg/mL] | MIC [8] [µg/mL] | IC50 at 72 h [9] [µg/mL] |
| --- | --- | --- | --- | --- | --- | --- | --- | --- | --- |
| CCCCCCC(=O)N[C@@H](CCN)C(=O)N[C@H](C(=O)N[C@H](CO)C(=O)N[C@H]1CCNC(=O)[C@H]([C@@H](C)O)NC(=O)[C@H](CN)NC(=O)[C@H](CCN)NC(=O)[C@H]([C@@H](C)O)NC(=O)[C@@H](Cc2ccccc2)NC(=O)[C@H](CCN)NC1=O)[C@@H](C)O [Compound 84, Heptanoyl-Dab-Thr-D-Ser-ring(4-10)[Dab-Dab-D-Phe-Thr-Dab-Dap-Thr]] (Heptanoyl-[Dab]T[dS][Dab][Dab][dF]T[Dab][Dap]T; lactam 4-C) | 0.06 (≈ 0.0528 µM) | 0.03 (≈ 0.0264 µM) | 0.25 (≈ 0.22 µM) | 0.25 (≈ 0.22 µM) | 0.25 (≈ 0.22 µM) | 0.5 (≈ 0.44 µM) | >64 | 64 (≈ 56.3 µM) | > 500 |
| CCCCCCCCC(=O)N[C@@H](CCN)C(=O)N[C@H](C(=O)N[C@@H](CCCN)C(=O)N[C@H]1CCNC(=O)[C@H]([C@@H](C)O)NC(=O)[C@H](CCN)NC(=O)[C@H](CCN)NC(=O)[C@H](CC(C)C)NC(=O)[C@@H](Cc2ccccc2)NC(=O)[C@H](CCN)NC1=O)[C@@H](C)O [Compound 50, Nonanoyl-Dab-Thr-Orn-ring(4-10)[Dab-Dab-D-Phe-Leu-Dab-Dab-Thr]] (Nonanoyl-[Dab]T[Orn][Dab][Dab][dF]L[Dab][Dab]T; lactam 4-C) | 0.125 (≈ 0.103 µM) | 0.06 (≈ 0.0493 µM) | 0.06 (≈ 0.0493 µM) | 0.06 (≈ 0.0493 µM) | 0.03 (≈ 0.0246 µM) | 0.03 (≈ 0.0246 µM) | 0.03 (≈ 0.0246 µM) | 0.5 (≈ 0.411 µM) | 150 ± 5.2 (≈ 123 µM) |
| CCCCCCCC(=O)N[C@@H](CCN)C(=O)N[C@H](C(=O)N[C@H](CO)C(=O)N[C@H]1CCNC(=O)[C@H]([C@@H](C)O)NC(=O)[C@H](CN)NC(=O)[C@H](CCN)NC(=O)[C@H]([C@@H](C)O)NC(=O)[C@@H](Cc2ccccc2)NC(=O)[C@H](CCN)NC1=O)[C@@H](C)O [Compound 83, Octanoyl-Dab-Thr-D-Ser-ring(4-10)[Dab-Dab-D-Phe-Thr-Dab-Dap-Thr]] (Octanoyl-[Dab]T[dS][Dab][Dab][dF]T[Dab][Dap]T; lactam 4-C) | 0.06 (≈ 0.0522 µM) | ≤0.03 | 0.06 (≈ 0.0522 µM) | 0.06 (≈ 0.0522 µM) | 0.25 (≈ 0.217 µM) | 0.5 (≈ 0.435 µM) | >64 | 64 (≈ 55.6 µM) | > 500 |
| CCCCCCC(=O)N[C@@H](CN)C(=O)N[C@H](C(=O)N[C@H](CCN)C(=O)N[C@H]1CCNC(=O)[C@H]([C@@H](C)O)NC(=O)[C@H](CCN)NC(=O)[C@H](CCN)NC(=O)[C@H](CC(C)C)NC(=O)[C@@H](Cc2ccccc2)NC(=O)[C@H](CCN)NC1=O)[C@@H](C)O [Compound 94, Heptanoyl-Dap-Thr-D-Dab-ring(4-10)[Dab-Dab-D-Phe-Leu-Dab-Dab-Thr]] (Heptanoyl-[Dap]T[dDab][Dab][Dab][dF]L[Dab][Dab]T; lactam 4-C) | 0.03 (≈ 0.0258 µM) | 0.03 (≈ 0.0258 µM) | 0.06 (≈ 0.0517 µM) | 0.06 (≈ 0.0517 µM) | 0.03 (≈ 0.0258 µM) | 0.03 (≈ 0.0258 µM) | 1 (≈ 0.861 µM) | 1 (≈ 0.861 µM) | 298 ± 30.7 (≈ 257 µM) |
| CC(C)CCCCC(=O)N[C@@H](CCN)C(=O)N[C@H](C(=O)N[C@H](CO)C(=O)N[C@H]1CCNC(=O)[C@H]([C@@H](C)O)NC(=O)[C@H](CCNCS(=O)(=O)O)NC(=O)[C@H](CCN)NC(=O)[C@H]([C@@H](C)O)NC(=O)[C@@H](Cc2ccccc2)NC(=O)[C@H](CCN)NC1=O)[C@@H](C)O [Compound 111, 6-methylheptanoyl-Dab-Thr-D-Ser-ring(4-10)[Dab-Dab-D-Phe-Thr-Dab-Dab(CH2SO3H)-Thr]] ({Heptanoyl(6-Me)}-[Dab]T[dS][Dab][Dab][dF]T[Dab][Dab(CH2SO3H)]T; lactam 4-C) | 0.25 (≈ 0.199 µM) | 0.06 (≈ 0.0477 µM) | 0.06 (≈ 0.0477 µM) | 0.06 (≈ 0.0477 µM) | 0.125 (≈ 0.0993 µM) | 0.125 (≈ 0.0993 µM) | 0.25 (≈ 0.199 µM) | 0.5 (≈ 0.397 µM) | > 500 |
| CC[C@H](C)CCCCC(=O)N[C@@H](CCN)C(=O)N[C@H](C(=O)N[C@H](CO)C(=O)N[C@H]1CCNC(=O)[C@H]([C@@H](C)O)NC(=O)[C@H](CCN)NC(=O)[C@H](CCCN)NC(=O)[C@H]([C@@H](C)O)NC(=O)[C@@H](Cc2ccccc2)NC(=O)[C@H](CCN)NC1=O)[C@@H](C)O [Compound 76, (S)-6-methyloctanoyl-Dab-Thr-D-Ser-ring(4-10)[Dab-Dab-D-Phe-Thr-Orn-Dab-Thr]] (X1-[Dab]T[dS][Dab][Dab][dF]T[Orn][Dab]T; lactam 4-C) | 0.06 (≈ 0.0503 µM) | ≤0.03 | ≤0.03 | ≤0.03 | 0.25 (≈ 0.21 µM) | 0.5 (≈ 0.419 µM) | >64 | 64 (≈ 53.7 µM) | > 500 |
| CCCCCCCCC(=O)N[C@@H](CN)C(=O)N[C@H](C(=O)N[C@H](CCN)C(=O)N[C@H]1CCNC(=O)[C@H]([C@@H](C)O)NC(=O)[C@H](CCN)NC(=O)[C@H](CCN)NC(=O)[C@H](CC(C)C)NC(=O)[C@@H](Cc2ccccc2)NC(=O)[C@H](CCN)NC1=O)[C@@H](C)O [Compound 95, Nonanoyl-Dap-Thr-D-Dab-ring(4-10)[Dab-Dab-D-Phe-Leu-Dab-Dab-Thr]] (Nonanoyl-[Dap]T[dDab][Dab][Dab][dF]L[Dab][Dab]T; lactam 4-C) | 0.06 (≈ 0.0504 µM) | 0.06 (≈ 0.0504 µM) | 0.125 (≈ 0.105 µM) | 0.125 (≈ 0.105 µM) | 0.06 (≈ 0.0504 µM) | 0.06 (≈ 0.0504 µM) | 1 (≈ 0.841 µM) | 1 (≈ 0.841 µM) | 113 ± 10.3 (≈ 94.8 µM) |
| CC(C)CCCCC(=O)N[C@@H](CCN)C(=O)N[C@H](C(=O)N[C@H](CO)C(=O)N[C@H]1CCNC(=O)[C@H]([C@@H](C)O)NC(=O)[C@H](CCN)NC(=O)[C@H](CCN)NC(=O)[C@H]([C@@H](C)O)NC(=O)[C@@H](Cc2ccccc2)NC(=O)[C@H](CCN)NC1=O)[C@@H](C)OCS(=O)(=O)O [Compound 104, 6-methylheptanoyl-Dab-Thr(CH2SO3H)-D-Ser-ring(4-10)[Dab-Dab-D-Phe-Thr-Dab-Dab-Thr]] ({Heptanoyl(6-Me)}-[Dab]T(Sulfomethyl)[dS][Dab][Dab][dF]T[Dab][Dab]T; lactam 4-C) | 0.06 (≈ 0.0477 µM) | 0.06 (≈ 0.0477 µM) | 0.03 (≈ 0.0238 µM) | 0.03 (≈ 0.0238 µM) | 0.125 (≈ 0.0993 µM) | 0.125 (≈ 0.0993 µM) | 0.25 (≈ 0.199 µM) | 0.25 (≈ 0.199 µM) | > 500 |
| CCCCCCCCC(=O)N[C@@H](CN)C(=O)N[C@H](C(=O)N[C@H](CO)C(=O)N[C@H]1CCNC(=O)[C@H]([C@@H](C)O)NC(=O)[C@H](CCN)NC(=O)[C@H](CCN)NC(=O)[C@H]([C@@H](C)O)NC(=O)[C@@H](Cc2ccccc2)NC(=O)[C@H](CCN)NC1=O)[C@@H](C)O [Compound 55, Nonanoyl-Dap-Thr-D-Ser-ring(4-10)[Dab-Dab-D-Phe-Thr-Dab-Dab-Thr]] (Nonanoyl-[Dap]T[dS][Dab][Dab][dF]T[Dab][Dab]T; lactam 4-C) | 0.25 (≈ 0.215 µM) | 0.25 (≈ 0.215 µM) | 0.03 (≈ 0.0258 µM) | 0.03 (≈ 0.0258 µM) | 0.25 (≈ 0.215 µM) | 0.5 (≈ 0.429 µM) | 64 (≈ 55 µM) | 8 (≈ 6.87 µM) | 300 ± 10.8 (≈ 258 µM) |
| CCCCCCC(=O)N[C@@H](CCN)C(=O)N[C@H](C(=O)N[C@@H](CN)C(=O)N[C@H]1CCNC(=O)[C@H]([C@@H](C)O)NC(=O)[C@H](CCN)NC(=O)[C@H](CCN)NC(=O)[C@H](CC(C)C)NC(=O)[C@@H](Cc2ccccc2)NC(=O)[C@H](CCN)NC1=O)[C@@H](C)O [Compound 39, Heptanoyl-Dab-Thr-Dap-ring(4-10)[Dab-Dab-D-Phe-Leu-Dab-Dab-Thr]] (Heptanoyl-[Dab]T[Dap][Dab][Dab][dF]L[Dab][Dab]T; lactam 4-C) | 0.03 (≈ 0.0258 µM) | 0.03 (≈ 0.0258 µM) | 0.03 (≈ 0.0258 µM) | 0.03 (≈ 0.0258 µM) | 0.03 (≈ 0.0258 µM) | 0.03 (≈ 0.0258 µM) | 0.06 (≈ 0.0517 µM) | 0.5 (≈ 0.431 µM) | 357 ± 8.1 (≈ 307 µM) |
| CC[C@H](C)CCCCC(=O)N[C@@H](CN)C(=O)N[C@H](C(=O)N[C@H](CCN)C(=O)N[C@H]1CCNC(=O)[C@H]([C@@H](C)O)NC(=O)[C@H](CCN)NC(=O)[C@H](CCN)NC(=O)[C@H](CC(C)C)NC(=O)[C@@H](Cc2ccccc2)NC(=O)[C@H](CCN)NC1=O)[C@@H](C)O [Compound 91, (S)-6-methyloctanoyl-Dap-Thr-D-Dab-ring(4-10)[Dab-Dab-D-Phe-Leu-Dab-Dab-Thr]] (X1-[Dap]T[dDab][Dab][Dab][dF]L[Dab][Dab]T; lactam 4-C) | 0.03 (≈ 0.0252 µM) | 0.03 (≈ 0.0252 µM) | 0.03 (≈ 0.0252 µM) | 0.03 (≈ 0.0252 µM) | 0.03 (≈ 0.0252 µM) | 0.03 (≈ 0.0252 µM) | 0.5 (≈ 0.42 µM) | 0.5 (≈ 0.42 µM) | 126 ± 19.2 (≈ 106 µM) |
